Measured values as given in patent US10174033B2, “N6-substituted adenosine derivatives and N6-substituted adenine derivatives and uses thereof” (INSTITUTE OF MATERIA MEDICA, CHINESE ACADEMY OF MEDICAL …, priority 2009, dated 2019).

Tested on: male ICR-mice
Assay: Potentiation of sodium pentobarbital sleeping time test
Format: in vivo
Settings: intraperitoneal, 1 mg/kg, 38 mg/kg sodium pentobarbital 30 min later
Procedure: Effects of N^6-substituted adenosine derivatives and/or N^6-substituted adenine derivatives on sodium pentobarbital-induced sleeping time in mice.
Name of Experiment: Potentiation of sodium pentobarbital sleeping time test.
Method of Experiment: Groups of 8-10 male ICR-mice with an average weight of 18-22 g were used. They were dosed orally or i.p. with the test compound or the vehicle. Thirty min after i.p. injection or 60 min after oral dosing 38 mg/kg sodium pentobarbital were injected intravenously. The latency and duration of sleep (loss of righting reflex) were recorded. The percentage of prolongation of sleeping time was calculated as: [(sleeping time of experimental group)−(sleeping time of control group)]/(sleeping time of control group)×100%.

Row | Compound | Sleep prolonging rate (%)
1 | Cc1ccc(CNc2ncnc3c2ncn3[C@@H]2O[C@H](CO)[C@@H](O)[C@H]2O)cc1 [Example 4, N^6-(p-methylbenzyl)-adenosine] | 51%
2 | Cc1cccc(CNc2ncnc3c2ncn3[C@@H]2O[C@H](CO)[C@@H](O)[C@H]2O)c1 [Example 5, N^6-(m-methylbenzyl)-adenosine] | 84%

Same assay, conditions: intraperitoneal, 5 mg/kg, 38 mg/kg sodium pentobarbital 30 min later

Row | Compound | Sleep prolonging rate (%)
3 | O=C(O)[C@H](Cc1ccc(O)cc1)Nc1ncnc2c1ncn2[C@@H]1O[C@H](CO)C(O)C1O (stereo partly drawn) [Example 107, N-(6-adenosine)-(L)-tyrosine] | 66%
4 | O=C(O)[C@H](Cc1ccccc1)Nc1ncnc2c1ncn2[C@@H]1O[C@H](CO)C(O)C1O (stereo partly drawn) [Example 102, N-(6-adenosine)-(L)-phenylalanine] | 44%
5 | OC[C@H]1O[C@@H](n2cnc3c(NCc4cccs4)ncnc32)[C@H](O)[C@@H]1O [Example 19, N^6-(2-thiopheneylmethyl)-adenosine] | 12%

Same assay, conditions: oral, 2.5 mg/kg, 38 mg/kg sodium pentobarbital 60 min later

Row | Compound | Sleep prolonging rate (%)
6 | CC[C@H](Nc1ncnc2c1ncn2[C@@H]1O[C@H](CO)[C@@H](O)[C@H]1O)c1ccccc1 [Example 78, N^6-[(S)-1-(phenyl)-propyl]-adenosine] | 49%
7 | CC(Nc1ncnc2c1ncn2[C@@H]1O[C@H](CO)[C@@H](O)[C@H]1O)c1ccc(N)cc1 (mixture of isomers) [Example 48, N^6-[(±)-1-(4-aminophenyl)-ethyl]-adenosine] | 132%

Same assay, conditions: oral, 5 mg/kg, 38 mg/kg sodium pentobarbital 60 min later

Row | Compound | Sleep prolonging rate (%)
8 | OC[C@H]1O[C@@H](n2cnc3c(N[C@@H](c4ccccc4)[C@H](O)c4ccccc4)ncnc32)C(O)C1O (stereo partly drawn) [Example 100, N^6-{(1R,2S)-[2-hydroxy-(1,2-diphenyl)]-ethyl}-adenosine] | 38%
9 | CCCCCCCCCCCC(=O)OCC1OC(n2cnc3c(NCc4ccc(OC(=O)CCCCCCCCCCC)c(OC)c4)ncnc32)C2OC(C)(C)OC12 (stereo not drawn) [Example 25, N^6-(3-methoxy-4-lauroyloxybenzyl)-2′,3′-O-isopropylidene-adenosine-5′-laurate] | 27%
10 | CC(C(O)c1ccccc1)N(C)c1ncnc2c1ncn2[C@@H]1O[C@H](CO)C(O)C1O (mixture of isomers) [Example 137, N^6-methyl-N^6-[(±)-2-(1-hydroxy-1-phenyl)-propyl]-adenosine] | 92%
11 | C[C@H](Nc1ncnc2c1ncn2[C@@H]1O[C@H](CO)[C@@H](O)[C@H]1O)c1ccc(Cl)cc1 [Example 69, N^6-[(S)-1-(4-chlorophenyl)-ethyl]-adenosine] | 33%
12 | N^6-[(±)-1-(3,4,5-trimethoxyphenyl)-ethyl]-adenosine-5′-decanoic ether [Example 56] | 2%
13 | OCCN(Cc1ccccc1)c1ncnc2c1ncn2[C@@H]1O[C@H](CO)[C@@H](O)[C@H]1O [Example 138, N^6-(2-hydroxyethyl)-N^6-benzyl-adenosine] | 18%
14 | CC[C@@H](Nc1ncnc2c1ncn2C1CCCO1)c1ccccc1 (stereo partly drawn) [Example 146, N^6-[(R)-1-(phenyl)-propyl]-N^9-(tetrahydrofuran-2-yl)-adenine] | 2%
15 | Cc1ccc([C@H](C)Nc2ncnc3c2ncn3[C@@H]2O[C@H](CO)[C@@H](O)[C@H]2O)cc1 [Example 60, N^6-[(S)-1-(4-methylphenyl)-ethyl]adenosine] | 19%
16 | OC[C@H]1O[C@@H](n2cnc3c(N[C@H](CO)[C@H](O)c4ccccc4)ncnc32)C(O)C1O (stereo partly drawn) [Example 42, N^6-[(1R,2R)-2-(1,3-dihydroxy-1-phenyl)-propyl]-adenosine] | 4%
17 | COc1cc(CNc2ncnc3c2ncn3[C@H]2C[C@@H](OC(C)=O)[C@@H](COC(C)=O)O2)ccc1O [Example 148, N^6-(3-methoxy-4-hydroxy-benzyl)-2′-deoxy-3′,5′-diacetyl adenosine] | 71%
18 | C[C@H](Nc1ncnc2c1ncn2[C@@H]1O[C@H](CO)[C@@H](O)[C@H]1O)c1ccc(F)cc1 [Example 71, N^6-[(S)-1-(4-fluorophenyl)-ethyl]-adenosine] | 24%
